Laboratory results from ChEMBL document CHEMBL5143550, “Thiol- and Disulfide-Containing Vancomycin Derivatives Against Bacterial Resistance and Biofilm Formation” (2021).
Converted amounts (≈) assume the structure as drawn.

Columns and labels:
Format in all cases: functional
[1] = system: Enterococcus faecalis; assay: Antibacterial activity against VanB-resistant Enterococcus faecalis ATCC 51299 assessed as inhibition of bacterial growth by standard broth microdilution susceptibility method
[2] = system: Streptococcus pneumoniae; assay: Antibacterial activity against […] assessed as inhibition of bacterial growth by standard broth microdilution susceptibility method
[3] = system: Staphylococcus aureus; assay: Antibacterial activity against vancomycin-intermediate Staphylococcus aureus ATCC NRS1 assessed as inhibition of bacterial growth by standard broth microdilution susceptibility method
[4] = system: Staphylococcus aureus; assay: Antibacterial activity against Staphylococcus aureus ATCC 25923 assessed as inhibition of bacterial growth by standard broth microdilution susceptibility method
[5] = system: Enterococcus faecalis; assay: Antibacterial activity against VanB-resistant Enterococcus faecalis ATCC 51299 assessed as inhibition of colony formation in BHIG medium incubated for 24 hrs by resazurin assay
[6] = system: Enterococcus faecalis; assay: Antibacterial activity against VanB-resistant Enterococcus faecalis ATCC 51299 assessed as inhibition of bacterial growth in BHIG medium incubated for 24 hrs by resazurin assay
[7] = system: Enterococcus faecalis; assay: Antibiofilm activity against VanB-resistant Enterococcus faecalis ATCC 51299 assessed as inhibition of biofilm formation by measuring decrease in RFU in BHIG medium incubated for 24 hrs by resazurin assay
[8] = system: Enterococcus faecalis; assay: Antibiofilm activity against VanB-resistant Enterococcus faecalis ATCC 51299 assessed as inhibition of biofilm formation in BHIG medium incubated for 24 hrs by resazurin assay
[9] = system: Moraxella catarrhalis; assay: Antibacterial activity against Moraxella catarrhalis ATCC 8193 assessed as inhibition of bacterial growth by standard broth microdilution susceptibility method
[10] = system: Enterococcus gallinarum; assay: Antibacterial activity against VanC-resistant Enterococcus gallinarum ATCC 700221 assessed as inhibition of bacterial growth by standard broth microdilution susceptibility method
[11] = system: Staphylococcus aureus; assay: Antibacterial activity against methicillin-resistant Staphylococcus aureus ATCC 43300 assessed as inhibition of bacterial growth by standard broth microdilution susceptibility method
[12] = system: Enterococcus faecium; assay: Antibacterial activity against VanA-resistant Enterococcus faecium MMX0485 assessed as inhibition of bacterial growth by standard broth microdilution susceptibility method
[13] = system: Staphylococcus aureus; assay: Antibacterial activity against heterogenous vancomycin-intermediate Staphylococcus aureus ATCC NRS24 assessed as inhibition of bacterial growth by standard broth microdilution susceptibility method
[14] = system: Clostridioides difficile; assay: Antibacterial activity against Clostridium difficile ATCC 43255 assessed as inhibition of bacterial growth by standard broth microdilution susceptibility method
[15] = system: Staphylococcus aureus; assay: Potency index, ratio of vancomycin MIC to test compound MIC for antibacterial activity against heterogenous vancomycin-intermediate Staphylococcus aureus ATCC NRS24 assessed as inhibition of bacterial growth by standard broth microdilution susceptibility method
[16] = system: Staphylococcus aureus; assay: Potency index, ratio of vancomycin MIC to test compound MIC for antibacterial activity against vancomycin-intermediate Staphylococcus aureus ATCC NRS1 assessed as inhibition of bacterial growth by standard broth microdilution susceptibility method
[17] = system: Enterococcus faecalis; assay: Potency index, ratio of vancomycin MIC to test compound MIC for antibacterial activity against VanB-resistant Enterococcus faecalis ATCC 51299 assessed as inhibition of bacterial growth by standard broth microdilution susceptibility method
[18] = system: Enterococcus faecium; assay: Potency index, ratio of vancomycin MIC to test compound MIC for antibacterial activity against VanA-resistant Enterococcus faecium MMX0485 assessed as inhibition of bacterial growth by standard broth microdilution susceptibility method

Structure (SMILES)	MIC [1]	MIC [2]	MIC [3]	MIC [4]	Activity [5]	inhibition (INH) [6]	inhibition (INH) [7]	MBIC [8]	MIC [9]	MIC [10]	MIC [11]	MIC [12]	MIC [13]	MIC [14]	Ratio [15]	Ratio [16]	Ratio [17]	Ratio [18]
CN[C@H](CC(C)C)C(=O)N[C@H]1C(=O)N[C@@H](CC(N)=O)C(=O)N[C@H]2C(=O)N[C@H]3C(=O)N[C@H](C(=O)N[C@H](C(=O)NCCSSCCNC(=O)CCCCC4CCSS4)c4cc(O)cc(O)c4-c4cc3ccc4O)[C@H](O)c3ccc(c(Cl)c3)Oc3cc2cc(c3O[C@@H]2O[C@H](CO)[C@@H](O)[C@H](O)[C@H]2O[C@H]2C[C@](C)(N)[C@H](O)[C@H](C)O2)Oc2ccc(cc2Cl)[C@H]1O (some centres not stated)	4 µg/mL (≈ 2.26 µM)	0.25 µg/mL (≈ 0.141 µM)	2 µg/mL (≈ 1.13 µM)	2 µg/mL (≈ 1.13 µM)	16 µg/mL	100%	100%	16 µg/mL	8 µg/mL (≈ 4.52 µM)	8 µg/mL (≈ 4.52 µM)	2 µg/mL (≈ 1.13 µM)	> 32 µg/mL	2 µg/mL (≈ 1.13 µM)	0.5 µg/mL (≈ 0.282 µM)	–	–	–	–
CCCCCCCCCCCSSCCNC(=O)[C@H]1NC(=O)[C@H]2NC(=O)[C@H](NC(=O)[C@@H]3NC(=O)[C@H](CC(N)=O)NC(=O)[C@H](NC(=O)[C@@H](CC(C)C)NC)[C@H](O)c4ccc(c(Cl)c4)Oc4cc3cc(c4O[C@@H]3O[C@H](CO)[C@@H](O)[C@H](O)[C@H]3O[C@H]3C[C@](C)(N)[C@H](O)[C@H](C)O3)Oc3ccc(cc3Cl)[C@H]2O)c2ccc(O)c(c2)-c2c(O)cc(O)cc21	0.25 µg/mL (≈ 0.148 µM)	0.25 µg/mL (≈ 0.148 µM)	0.5 µg/mL (≈ 0.295 µM)	1 µg/mL (≈ 0.59 µM)	2 µg/mL	99%	92%	2 µg/mL	0.5 µg/mL (≈ 0.295 µM)	4 µg/mL (≈ 2.36 µM)	1 µg/mL (≈ 0.59 µM)	2 µg/mL (≈ 1.18 µM)	1 µg/mL (≈ 0.59 µM)	0.12 µg/mL (≈ 0.0708 µM)	16	16	16	16
CN[C@H](CC(C)C)C(=O)N[C@H]1C(=O)N[C@@H](CC(N)=O)C(=O)N[C@H]2C(=O)N[C@H]3C(=O)N[C@H](C(=O)N[C@H](C(=O)NCCSSCCNC(=O)CCS)c4cc(O)cc(O)c4-c4cc3ccc4O)[C@H](O)c3ccc(c(Cl)c3)Oc3cc2cc(c3O[C@@H]2O[C@H](CO)[C@@H](O)[C@H](O)[C@H]2O[C@H]2C[C@](C)(N)[C@H](O)[C@H](C)O2)Oc2ccc(cc2Cl)[C@H]1O	2 µg/mL (≈ 1.2 µM)	0.25 µg/mL (≈ 0.15 µM)	1 µg/mL (≈ 0.598 µM)	0.5 µg/mL (≈ 0.299 µM)	8 µg/mL	100%	97%	8 µg/mL	2 µg/mL (≈ 1.2 µM)	4 µg/mL (≈ 2.39 µM)	0.5 µg/mL (≈ 0.299 µM)	8 µg/mL (≈ 4.79 µM)	1 µg/mL (≈ 0.598 µM)	1 µg/mL (≈ 0.598 µM)	–	–	–	–
CN[C@H](CC(C)C)C(=O)N[C@H]1C(=O)N[C@@H](CC(N)=O)C(=O)N[C@H]2C(=O)N[C@H]3C(=O)N[C@H](C(=O)N[C@H](C(=O)NCCSSCCN)c4cc(O)cc(O)c4-c4cc3ccc4O)[C@H](O)c3ccc(c(Cl)c3)Oc3cc2cc(c3O[C@@H]2O[C@H](CO)[C@@H](O)[C@H](O)[C@H]2O[C@H]2C[C@](C)(N)[C@H](O)[C@H](C)O2)Oc2ccc(cc2Cl)[C@H]1O	8 µg/mL (≈ 5.05 µM)	≤ 0.03 µg/mL	1 µg/mL (≈ 0.631 µM)	1 µg/mL (≈ 0.631 µM)	16 µg/mL	98%	86%	16 µg/mL	> 32 µg/mL	8 µg/mL (≈ 5.05 µM)	1 µg/mL (≈ 0.631 µM)	8 µg/mL (≈ 5.05 µM)	1 µg/mL (≈ 0.631 µM)	0.5 µg/mL (≈ 0.316 µM)	–	–	–	–
CN[C@H](CC(C)C)C(=O)N[C@H]1C(=O)N[C@@H](CC(N)=O)C(=O)N[C@H]2C(=O)N[C@H]3C(=O)N[C@H](C(=O)N[C@H](C(=O)O)c4cc(O)cc(O)c4-c4cc3ccc4O)[C@H](O)c3ccc(c(Cl)c3)Oc3cc2cc(c3O[C@@H]2O[C@H](CO)[C@@H](O)[C@H](O)[C@H]2O[C@H]2C[C@](C)(N)[C@H](O)[C@H](C)O2)Oc2ccc(cc2Cl)[C@H]1O [VANCOMYCIN]	16 µg/mL (≈ 11 µM)	0.12 µg/mL (≈ 0.0828 µM)	8 µg/mL (≈ 5.52 µM)	–	64 µg/mL	100%	98%	64 µg/mL	> 32 µg/mL	8 µg/mL (≈ 5.52 µM)	–	> 128 µg/mL	16 µg/mL (≈ 11 µM)	0.12 µg/mL (≈ 0.0828 µM)	–	–	–	–
